In ChEMBL document CHEMBL1152991, “Tetracycline resistance in Ureaplasma spp. and Mycoplasma hominis: prevalence in Bordeaux, France, from 1999 to 2002 and description of two tet(M)-positive isolates of M. hominis susceptible to tetracyclines” (2008):
In brackets after ≈: the same amount, converted by molar mass.

Tests used:
Type in all cases: functional
Metamycoplasma hominis [1] = assay: Antimicrobial activity against tetracycline-resistant Mycoplasma hominis isolate overexpressing tet(M) gene
Metamycoplasma hominis [2] = assay: Antimicrobial activity against tetracycline-susceptible Mycoplasma hominis isolate 3430 expressing tet(M) gene after 10 passages of drug treatment
Metamycoplasma hominis [3] = assay: Antimicrobial activity against tetracycline-susceptible Mycoplasma hominis isolate 3430 expressing tet(M) gene after 3 passages of drug treatment
Metamycoplasma hominis [4] = assay: Antimicrobial activity against tetracycline-susceptible Mycoplasma hominis isolate 3425 expressing tet(M) gene after 20 passages of drug treatment
Ureaplasma = assay: Antimicrobial activity against tetracycline-resistant Ureaplasma sp. isolate overexpressing tet(M) gene

Structure (SMILES) | MIC (Metamycoplasma hominis [1]) [µg/mL] | MIC (Metamycoplasma hominis [2]) [µg/mL] | MIC (Metamycoplasma hominis [3]) [µg/mL] | MIC (Metamycoplasma hominis [4]) [µg/mL] | MIC (Ureaplasma) [µg/mL]
C[C@H]1c2cccc(O)c2C(=O)C2=C(O)[C@]3(O)C(=O)C(C(N)=O)=C(O)[C@@H](N(C)C)[C@@H]3[C@@H](O)[C@@H]21.O [DOXYCYCLINE] | 32 | 32 | 0.12 | 0.12 | > 32
CN(C)c1ccc(O)c2c1C[C@H]1C[C@H]3[C@H](N(C)C)C(O)=C(C(N)=O)C(=O)[C@@]3(O)C(O)=C1C2=O [MINOCYCLINE] | 32 (≈ 69.9 µM) |  |  |  | > 32
CN(C)[C@@H]1C(O)=C(C(N)=O)C(=O)[C@@]2(O)C(O)=C3C(=O)c4c(O)cccc4[C@@](C)(O)[C@H]3C[C@@H]12 [TETRACYCLINE] | 32 (≈ 72 µM) |  |  |  | > 32
